Assay: in vitro
Details: human, hela cells

Compound | viability at 28.5 h, 10 µM (% viability) [%] | viability at 28.5 h, 10 µM [%]
N#Cc1c2ccccc2cn1Cc1cccc(Cl)c1 [CBK019531] | 82.6 | 
COC(=O)c1ccc(COc2nc3ccccc3nc2/C=C/c2cccc([N+](=O)[O-])c2)cc1 [CBK268776] | 112 | 
C[C@@H](c1ccccc1)N1C(=O)[C@@H]2CN(S(=O)(=O)c3cccs3)CCN2C1=O [CBK289635] | 91.3 | 
O=C(CC12CC3CC(CC(C3)C1)C2)Nc1nc[nH]n1 [CBK288208] | 117 | 
Clc1ccc(-n2ncc(-c3cccnc3)n2)cc1Cl [CBK112814] | 101 | 
O=S(=O)(CC(F)(F)F)Nc1ccc(N2CCNCC2)c2ccccc12 [CBK059354C] | 90.6 | 
Clc1ccccc1CSc1nnc2c(n1)OC=Nc1ccccc1-2 [CBK265085] | 99.1 | 
COCC(C)N(C)S(=O)(=O)c1ccc(Cl)nc1 (centres unmarked) [CBK304813] | 95.2 | 
O=C1CN(Cc2ccc3ccccc3n2)CCN1C1CCCC1 [CBK281961] | 88.6 | 
CCCC(=O)N1CCCC1c1cc2n(n1)[C@@H](C(F)(F)F)C[C@@H](C)N2 (some centres unmarked) [CBK283003] | 92.4 | 
CS(=O)(=O)c1ccc(Cn2ccnc(N3CCC(Sc4ccccc4)CC3)c2=O)cc1 [CBK144444] | 84.2 | 
CCOc1ccc(Oc2nc(N(C)C)nc(N3CCOCC3)n2)nn1 [CBK269585] | 104 | 
CCCn1c(SCC(=O)NCc2ccc(OC)cc2)n[nH]c1=O [CBK297549] | 90.2 | 
CC(NC(=O)Cc1c[nH]c(=O)[nH]c1=O)c1cc2cc(Cl)ccc2o1 (centres unmarked) [CBK285673] | 100 | 
NCCN(Cc1cccc(Cl)c1)C(=O)NC(c1ccccc1)c1ccccc1 [CBK046203C] | 90.8 | 
CCN(CC)CCCCSc1ccc(O)cc1 [CBK261785C] | 95.7 | 
COCCNC(=O)N(CCC#N)C1CCCCC1 [CBK156358] | 97.3 | 
COc1cccc(CNc2nccnc2-c2cccs2)c1OC [CBK036784] | 95.7 | 
O=P(O)(O)CCCc1ccccc1 [CBK012021] |  | 80.5
O=C(NCc1ccccn1)C(=O)N/N=C/c1ccccc1O [CBK262157] | 85.4 | 
O=C(c1ccc(F)cc1)N1CCC(Oc2nccnc2OCc2ccc(Cl)c(Cl)c2)CC1 [CBK160721] | 85.9 | 
O=C(CC1Nc2ccccc2NC1=O)Nc1cccc(C(F)(F)F)c1 (centres unmarked) [CBK262510] | 99.6 | 
C=C(C)CNC(=O)c1cc(-c2cccc(NC(C)=O)c2)cnc1N(C)S(C)(=O)=O [CBK076622] | 93.9 | 
CC(C)C(=O)N1N=C2CCCCC2C1(O)C(F)(F)F (centres unmarked) [CBK028091] | 93.2 | 
Cc1cccc(NC(=S)NCCc2ccc(S(N)(=O)=O)cc2)c1C [CBK264889] | 86.5 | 
Cc1cc(=O)[nH]c2c1c(=O)[nH]n2C1CCCCCC1 [CBK288381] | 80.8 | 
Clc1ccc(COc2cccc(CNCc3ccccn3)c2)c(Cl)c1 [CBK270060C] | 88.8 | 

Compound | viability at 28.5 h, 10 µM (% viability) [%] | viability at 28.5 h, 10 µM [%]
CC(=O)NCCNC(=O)c1ccc(-c2cnc(OCC3CCN(C(=O)OC(C)(C)C)CC3)nc2)cn1 [CBK170023] | 104 | 
CCCc1cc(C(=O)N2CCc3sccc3C2C)[nH]n1 (centres unmarked) [CBK283072] | 101 | 
c1nn(C2CCCCC2)cc1-c1cncn1CCCN1CCCCC1 [CBK281495] | 97.5 | 
CCOC(=O)C(=O)N(C)c1c(CC)nc2c(OCc3ccccc3)cccn12 [CBK147879] | 86.8 | 
CCOC(=O)N1CCN(S(=O)(=O)c2ccc3c(c2)oc(=O)n3C)CC1 [CBK304667] | 105 | 
COc1cc(CC(=O)Nc2cccc(-c3ccc(OC4CCNCC4)cc3)n2)cc(OC)c1OC [CBK138351] | 83.4 | 
Clc1ccc(CSCCn2cccc2)cc1 [CBK021366] | 92 | 
O=c1c2c3c(sc2ncn1CC(O)COc1ccc(F)cc1)CCC3 (centres unmarked) [CBK295191] | 102 | 
Cc1nn(C(C)C)c(C)c1CN(CCO)Cc1cccs1 [CBK283016] | 86 | 
O=C1Nc2ccc(-c3cccc(C(F)(F)F)c3)cc2C(=O)N2CCN(C(=O)C3CC3)C[C@H]12 [CBK289585] | 79.4 | 
CCOC(=O)c1ccc(C2=NCCC2)[nH]1 [CBK011191] | 95.1 | 
N#Cc1cnn2c(C(F)(F)F)cc(C(F)(F)F)nc12 [CBK014064] | 93.5 | 
COc1cc(-c2cncc(NCc3ccncc3)n2)cc(OC)c1OC [CBK065263] | 98.9 | 
CC1CCCCC1NC(=O)NC(=O)Cn1nnc2ccccc2c1=O (centres unmarked) [CBK306046] | 90.2 | 
CC1(C)NC(=O)N(CC(O)CNC23CC4CC(CC(C4)C2)C3)C1=O (centres unmarked) [CBK264823] | 95.5 | 
COc1cc(/C=C/C(=O)O)ccc1OCC(=O)Nc1ccccc1 [CBK265695] | 101 | 
CCCN(CC1CC1)C(=O)CC1SC(NCC2CCCCC2)=NC1=O (centres unmarked) [CBK067014] | 104 | 
COc1cc2c(cc1NC(=O)c1cccc([N+](=O)[O-])c1)oc1ccccc12 [CBK262958] | 94.4 | 
CN(Cc1ccc2ncccc2c1)C(=O)C1CN(S(=O)(=O)c2ccc(F)cc2)C1 [CBK285943] | 92.5 | 
CCOC(=O)Cn1c(-c2ccc(OC)cc2)cc2cccnc21 [CBK283320] | 84.2 | 
Cc1cc(=O)n(CC(=O)NC(C)c2ccccn2)c2ccccc12 (centres unmarked) [CBK281820] | 96.3 | 
Cc1ccc(-c2n[nH]c(=S)n2CCC(=O)N(C)Cc2ccc(N3CCCCC3)cc2)cc1 [CBK297904] | 106 | 
O=C(Cn1cnc2c(oc3ccccc32)c1=O)Nc1ccc2c(c1)OCO2 [CBK287557] | 118 | 
COc1ccccc1OCCOc1c(Cl)cc(/C=C2\SC(=S)NC2=O)cc1Cl [CBK264848] | 93.9 | 
O=S(=O)(NCCc1c[nH]c2ccccc12)c1cccc2nsnc12 [CBK057456] | 83.4 | 
O=C(Nc1ccc(OC(F)F)cc1)Nc1ncc(Br)c2cccnc12 [CBK107635] | 115 | 
Cc1cccc(OCCCC(=O)Nc2ccc(S(N)(=O)=O)cc2)c1C [CBK267963] | 90.8 | 

Compound | viability at 28.5 h, 10 µM (% viability) [%] | viability at 28.5 h, 10 µM [%]
Cc1sc2ncn(CC(=O)NCCCN3CCCCC3)c(=O)c2c1C [CBK305831] | 96.7 | 
Cc1scnc1CN1CCn2nc(C(O)Cc3ccccc3)cc2C1 (centres unmarked) [CBK307612] | 90.9 | 
Nc1nc(C2CC(N)C2)cc(N2CCC(Oc3ccccc3Cl)CC2)n1 (centres unmarked) [CBK307356] | 88.6 | 
Cc1ccc(CCNc2c([N+](=O)[O-])nn(-c3ccc4c(c3)OCCO4)[n+]2[O-])cc1 [CBK268225] | 103 | 
c1ccc(Cn2c(CN3CCCC3)nc3ccccc32)cc1 [CBK269612] | 87.7 | 
Cc1nn(-c2ccccc2)c2nc(O)c(CNC(c3ccccc3)c3ccco3)cc12 (centres unmarked) [CBK286449] | 83.8 | 
COc1ccc(-c2nnc(SCC(=O)Nc3ccccc3[N+](=O)[O-])n2C)cc1 [CBK265609] | 103 | 
N[C@@H](Cc1c[nH]c2ccccc12)C(=O)N1CC[C@H]2NC(=O)[C@@H](Cc3ccccc3)NC(=O)C3(C/C=C/C[C@@H]2C1)CCOCC3 [CBK292202] | 115 | 
CC(C)C(=O)N1CC2(CCN(CC3COc4ccccc4O3)CC2)c2ccccc21 (centres unmarked) [CBK143946] | 98.2 | 
O=C(C1CN(Cc2nc3ccsc3c(=O)[nH]2)c2ccccc2O1)N1CCOCC1 (centres unmarked) [CBK295189] | 109 | 
COc1cc(C(=O)N2CCN(Cc3c[nH]c4ccccc34)CC2)cc(OC)c1OC [CBK301212G] | 77.7 | 
O=C(Nc1sc2c(c1C(=O)N1CCOCC1)CCCC2)c1cccs1 [CBK304649] | 92.9 | 
O=C(Nc1sc2c(c1C(=O)O)CCC2)c1ccco1 [CBK152436] | 101 | 
Fc1cccc(Cl)c1CN1CNC(=S)NC1 [CBK006480] | 88.7 | 
CCN(CC)CCN1C(=O)C(O)=C(C(=O)c2cccs2)C1c1ccccn1 (centres unmarked) [CBK269319] | 76.3 | 
COc1ccc(C(=O)O)cc1CN1CCOCC1 [CBK287029] | 102 | 
O=C(Nc1ccncc1)c1cnc2cc(C(F)(F)F)ccc2c1O [CBK116633T] | 92.1 | 
Cc1n[nH]c(NNC(=O)COc2ccc(Cl)cc2)c1[N+](=O)[O-] [CBK261478] | 98.2 | 
O=C(c1cc(F)c(F)cc1F)N1CCC2(CCCNC2)C1 (centres unmarked) [CBK137068T] | 87 | 
NC(=S)Nn1c(CCC(=O)O)ccc1-c1ccccc1 [CBK265942] | 100 | 
Cc1oc(NC(=O)CN2CCN(c3ccccc3)CC2)c(C#N)c1C [CBK306044] | 81.7 | 
CC(C)[C@@H](CO)Nc1nc(-c2cccc3ccccc23)cnc1N [CBK063725] | 95.2 | 
O=C(COc1ccc(Br)cc1)Nc1ccc(Cl)c(-c2nc3ccccc3[nH]2)c1 [CBK263075] | 92 | 
COc1cccc(Nc2cc(-c3ccc(N4CCOCC4)cc3)ncn2)c1 [CBK090733] | 68.7 | 
CCOC(=O)C1CCCN(C(=O)Cn2cnc(-c3cccs3)cc2=O)C1 (centres unmarked) [CBK304210] | 89.3 | 
O=C(O)c1cc(NC(=O)C2CC2)cc(C(=O)O)c1 [CBK268564] | 94.3 | 
